Assays:
Assay type in all cases: cell-based
human mGluR5d receptor = molecular target: T1, human mGluR5d receptor (Homo sapiens, UniProt P41594); assay: Xenopus oocyte expression assay, calcium-activated chloride current; conditions: for desensitization of evoked calcium-activated chloride currents: repeated application of 10-100 μM, Xenopus oocytes expressing hmGluR5d
T1 construct: expressed in transfected cells; host or cells: Xenopus laevis oocytes injected with cRNA transcribed from phmGluR5d(Hyg+)
Method: This example describes the activation of the novel hmGluRSd splice variant using a Xenopus oocyte expression assay. PhmGluR5d(Hyg+) DNA was linearized by restriction enzyme digestion, and capped sense-strand cRNA was synthesized by T7 RNA polymerase transcription (Ambion Message Machine Kit). In vitro-transcribed RNA was concentrated by ethanol precipitation and the size and integrity of the RNA was assessed on a denaturing agarose gel.
In vitro-transcribed RNA (˜10 ng) encoding the human mGluR5d receptor was injected into Xenopus Oocytes. Following injection, oocytes were incubated at 16° C. in MBS containing 1 mM CaCl2 for 2 to 7 days prior to electrophysiological recording. Following the incubation, the oocytes were voltage-clamped using standard electrophysiological techniques. […] Activation of the hmGluR5d receptor was detected by increases in the calcium-activated chloride current.
Test substances were applied by superfusion at a flow rate of about 5 ml/min. Receptor activation was determined by measuring the increase in calcium-activated chloride current (ICl) Increases in ICl were quantified by measuring the peak inward current stimulated by activating agent, relative to the holding current at […].

hmGluR5d receptor = molecular target: T2, hmGluR5d receptor (Homo sapiens, UniProt P41594); assay: Increases in intracellular calcium (Fluo3-AM, FLIPR) in transfected HEK293 cells; conditions: hmGluR5d expressed in HEK293 cells, FIG. 4
T2 construct: The full-length human mGluR5d was then subcloned into the mammalian expression vector pcDNA3.1/Hygro(+) vector; expressed in transfected cells; host or cells: HEK293 cells (ATCC CRL 1573) transfected with phmGluR5d(Hyg+)
Method: Human embryonic kidney cells (293, ATCC, CRL 1573) are grown in a routine manner. Cells are plated in 10 cm cell-culture plates in Dulbecco's modified Eagle's medium (D-MEM) containing 10% fetal bovine serum (FBS) and 1× penicillin-streptomycin (Life Technologies) so that they are approximately 70% confluent after an overnight incubation. To prepare DNA for transfection, the plasmid phmGluR5d(Hyg+) is precipitated with ethanol, rinsed and resuspended in sterile water at a concentration of 1 μg/μl. Ten micrograms of the plasmid DNA is incubated with the liposome formulation LipofectAMINE™ (Life Technologies) for 20 minutes in 1.6 mls of serum-free Opti-MEM (Life Technologies). After the room temperature incubation, 6.4 mls of Opti-MEM is added to the transfection mix. This solution is added to the cells which have been rinsed twice with 8 ml washes of Opti-MEM. The cells and transfection mix are incubated at 37° C. for 5 hours, at which time 8 mls of Opti-MEM/20% FBS is added to bring the FBS concentration to 10%. […] Expression of the novel human mGluR5d splice variant of the present invention in clonal cell lines or pools can be assessed by Northern blot analysis of human mGluR5d mRNA or functionally as in the above experiments by assessing increases in intracellular calcium in response to mGluR5 agonists. […]

[1] = molecular target: T3, hCaR/hmGluR5d chimeric receptor (Homo sapiens, UniProt P41180); assay: Increases in intracellular calcium (Fluo3-AM, FLIPR) in HEK293 cells expressing the chimeric receptor; conditions: hCaR/hmGluR5d expressed in HEK293 cells, FIG. 5
T3 construct: expressed in transfected cells; host or cells: HEK293 cells (ATCC CRL 1573) stably transfected with phCaR/hmGluR5d(Hyg+)
Method: This example provides a method for the production of stably transfected mammalian cell lines expressing the chimeric receptor hCaR/hmGluR5d, but is not meant to be limiting. Human embryonic kidney cells (293, ATCC, CRL 1573) are grown in a routine manner. Cells are plated in 10 cm cell-culture plates in Dulbecco's modified Eagle's medium (D-MEM) containing 10% fetal bovine serum (FBS) and 1×penicillin-streptomycin (Life Technologies) so that they are approximately 70% confluent after an overnight incubation. To prepare DNA for transfection, the plasmid phCaR/hmGluR5d(Hyg+) is precipitated with ethanol, rinsed and resuspended in sterile water at a concentration of 1 μg/μl. Ten micrograms of the plasmid DNA is incubated with the liposome formulation LipofectAMINE™ (Life Technologies) for 20 minutes in 1.6 mls of serum-free Opti-MEM (Life Technologies). […] Expression can also be assessed by Western blot analysis using the commercially available antibody Anti-Rat mGluR5, polyclonal (Upstate Biotechnology).
The chimeric receptor, hCaR/hmGluR5d, also mediates the stimulation of inositol phosphate (IP)/Ca^2+ signal transduction. […] After an additional 24 hour incubation, cells are loaded with the calcium indicator dye Fluo3-AM and increases in intracellular calcium in response to calcium are measured using an automated fluorescent imaging plate reader (FLIPR). […]

T1 sequence (P41594 21-942 isoform P41594-3): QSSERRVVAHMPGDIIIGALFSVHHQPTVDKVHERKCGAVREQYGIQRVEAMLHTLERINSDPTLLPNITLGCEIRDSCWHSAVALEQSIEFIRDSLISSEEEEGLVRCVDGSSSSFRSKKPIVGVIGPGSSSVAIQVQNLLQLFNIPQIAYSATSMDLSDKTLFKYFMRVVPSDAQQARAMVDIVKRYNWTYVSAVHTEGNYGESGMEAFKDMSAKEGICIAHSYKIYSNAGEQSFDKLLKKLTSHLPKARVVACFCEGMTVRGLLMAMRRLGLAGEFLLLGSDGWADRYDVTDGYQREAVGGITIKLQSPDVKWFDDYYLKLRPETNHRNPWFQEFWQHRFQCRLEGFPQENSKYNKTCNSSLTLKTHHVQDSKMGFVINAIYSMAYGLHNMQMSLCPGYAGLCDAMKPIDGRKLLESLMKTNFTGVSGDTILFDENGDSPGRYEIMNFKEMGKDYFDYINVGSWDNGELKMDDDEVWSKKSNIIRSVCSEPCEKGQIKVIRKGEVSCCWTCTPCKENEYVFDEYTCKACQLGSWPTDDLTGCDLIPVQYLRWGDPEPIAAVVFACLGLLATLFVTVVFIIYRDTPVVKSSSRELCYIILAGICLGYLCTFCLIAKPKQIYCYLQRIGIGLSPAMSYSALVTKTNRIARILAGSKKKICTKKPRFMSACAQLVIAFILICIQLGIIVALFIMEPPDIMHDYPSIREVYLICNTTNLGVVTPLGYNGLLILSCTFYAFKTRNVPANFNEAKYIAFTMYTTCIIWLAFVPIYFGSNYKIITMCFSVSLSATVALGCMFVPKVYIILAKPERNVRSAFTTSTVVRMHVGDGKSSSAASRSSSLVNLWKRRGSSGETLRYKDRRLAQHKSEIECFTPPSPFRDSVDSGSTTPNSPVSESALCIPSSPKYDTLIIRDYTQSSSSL
T3 sequence (P41180 with tags, fused parts or gaps): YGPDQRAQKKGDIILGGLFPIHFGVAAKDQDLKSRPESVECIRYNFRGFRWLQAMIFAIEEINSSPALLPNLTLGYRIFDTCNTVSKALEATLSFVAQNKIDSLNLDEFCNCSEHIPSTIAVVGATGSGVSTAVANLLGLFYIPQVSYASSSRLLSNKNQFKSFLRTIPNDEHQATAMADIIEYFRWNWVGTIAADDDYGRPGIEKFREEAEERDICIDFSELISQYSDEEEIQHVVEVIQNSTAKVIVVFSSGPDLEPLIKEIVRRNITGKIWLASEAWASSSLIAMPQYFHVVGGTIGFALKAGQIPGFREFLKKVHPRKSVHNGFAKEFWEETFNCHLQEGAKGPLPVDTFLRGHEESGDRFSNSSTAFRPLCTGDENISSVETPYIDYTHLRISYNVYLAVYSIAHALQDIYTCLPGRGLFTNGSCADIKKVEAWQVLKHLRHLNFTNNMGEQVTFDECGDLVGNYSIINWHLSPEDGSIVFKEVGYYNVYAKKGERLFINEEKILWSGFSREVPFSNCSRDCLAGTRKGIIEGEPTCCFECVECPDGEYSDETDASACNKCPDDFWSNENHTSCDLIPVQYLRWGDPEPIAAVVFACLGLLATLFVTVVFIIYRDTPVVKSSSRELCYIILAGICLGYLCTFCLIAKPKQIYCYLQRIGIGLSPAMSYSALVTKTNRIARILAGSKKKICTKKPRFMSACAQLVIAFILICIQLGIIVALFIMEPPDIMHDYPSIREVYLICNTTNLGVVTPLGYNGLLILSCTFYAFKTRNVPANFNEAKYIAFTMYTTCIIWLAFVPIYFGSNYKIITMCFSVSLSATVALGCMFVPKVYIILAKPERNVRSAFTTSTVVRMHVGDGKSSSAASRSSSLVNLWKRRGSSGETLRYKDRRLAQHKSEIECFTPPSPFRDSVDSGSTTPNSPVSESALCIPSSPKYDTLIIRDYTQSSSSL
T2 sequence (P41594 21-942 isoform P41594-3): as the sequence (P41594 21-942 isoform P41594-3) above

Molecule | desensitization of evoked calcium-activated chloride currents (human mGluR5d receptor) | functional activation of the receptor (agonist) (hmGluR5d receptor) | increase in calcium-activated chloride current (receptor activation) (human mGluR5d receptor; 100 μM, applied by superfusion, voltage-clamped Xenopus oocytes expressing hmGluR5d) | functional activation of the chimeric receptor (agonist) [1]
N[C@H](C(=O)O)c1cc(O)cc(O)c1 [DHPG, (S)-3,5-dihydroxyphenylglycine] | only minimally desensitized | functional activation | – | –
N[C@@H](CCC(=O)O)C(=O)O [L-glutamate] | only minimally desensitized | – | reversible, oscillatory increases in the calcium-activated chloride current | –
calcium | – | – | – | functional activation

Source: patent US7241863B2, “Human metabotropic glutamate receptor” (NPS Pharmaceuticals, Inc., priority 2003, dated 2007)
